Results published in patent US20230085307A1, “PYRIDAZINONE COMPOUND AND HERBICIDE” (NISSAN CHEMICAL CORPORATION, priority 2019, published 2023).

Experiments:
late watergrass = assay: Test Example 1: herbicidal activity, application before weed generation under submerged conditions (Table 16, symbol A); assay type: in vivo, late watergrass (Echinochloa oryzicola)
Procedure, shortened: (§1)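 Emulsion formulation, water-diluted to set dose, was put onto the flooded surface (4 cm depth, alluvial soil) the same day weeds were sown and 2.5-leaf rice transplanted. After 3 weeks at 25-30 °C under glass, each species was rated 0 (≤5% kill) to 5 (≥90% kill).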

Japanese bulrush = assay: Test Example 1: herbicidal activity, application before weed generation under submerged conditions (Table 16, symbol B); assay type: in vivo, Japanese bulrush (Schoenoplectus juncoides)
Procedure, shortened: as §1

oval-leafed pondweed = assay: Test Example 1: herbicidal activity, application before weed generation under submerged conditions (Table 16, symbol C); assay type: in vivo, oval-leafed pondweed (Monochoria vaginalis)
Procedure, shortened: as §1

barnyard grass [1] = assay: Test Example 3: herbicidal effect by foliage application, Wagner pot (Table 18, symbol H); assay type: in vivo, barnyard grass (Echinochloa crus-galli)
Procedure, shortened: (§2)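 Plants were sown in alluvial soil held under 0.1–0.5 cm standing water and grown 14 days in a greenhouse at 25–30 °C. An emulsifiable formulation, water-diluted to the set dose, was then sprayed onto the foliage, and effects were scored three weeks later using previously defined criteria.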

Chinese sprangletop = assay: Test Example 3: herbicidal effect by foliage application, Wagner pot (Table 18, symbol D); assay type: in vivo, chinese sprangletop (Leptochloa chinensis)
Procedure, shortened: as §2

rice flat sedge = assay: Test Example 3: herbicidal effect by foliage application, Wagner pot (Table 18, symbol E); assay type: in vivo, rice flat sedge (Cyperus iria)
Procedure, shortened: as §2

southern crabgrass [2] = assay: Test Example 4: herbicidal effect by soil treatment (Table 19, symbol F); assay type: in vivo, southern crabgrass (Digitaria ciliaris); settings: amount of applied herbicide 320 g/ha
Procedure, shortened: (§3)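 Applied as a water-diluted emulsion, the compound was sprayed onto soil covering newly sown seeds. Evaluation came three weeks after application, in a greenhouse held at 25° C. to 30° C.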

green foxtail [3] = assay: Test Example 4: herbicidal effect by soil treatment (Table 19, symbol G); assay type: in vivo, green foxtail (Setaria viridis); settings: amount of applied herbicide 320 g/ha
Procedure, shortened: as §3

barnyard grass [4] = assay: Test Example 4: herbicidal effect by soil treatment (Table 19, symbol H); assay type: in vivo, barnyard grass (Echinochloa crus-galli); settings: amount of applied herbicide 320 g/ha
Procedure, shortened: as §3

wild oat [5] = assay: Test Example 4: herbicidal effect by soil treatment (Table 19, symbol I); assay type: in vivo, wild oat (Avena fatua); settings: amount of applied herbicide 320 g/ha
Procedure, shortened: as §3

Italian ryegrass [6] = assay: Test Example 4: herbicidal effect by soil treatment (Table 19, symbol K); assay type: in vivo, Italian ryegrass (Lolium multiflorum); settings: amount of applied herbicide 320 g/ha
Procedure, shortened: as §3

windgrass [7] = assay: Test Example 4: herbicidal effect by soil treatment (Table 19, symbol L); assay type: in vivo, windgrass (Apera spica-venti); settings: amount of applied herbicide 320 g/ha
Procedure, shortened: as §3

velvetleaf [8] = assay: Test Example 4: herbicidal effect by soil treatment (Table 19, symbol M); assay type: in vivo, velvetleaf (Abutilon theophrasti); settings: amount of applied herbicide 320 g/ha
Procedure, shortened: as §3

redroot pigweed [9] = assay: Test Example 4: herbicidal effect by soil treatment (Table 19, symbol N); assay type: in vivo, redroot pigweed (Amaranthus retroflexus); settings: amount of applied herbicide 320 g/ha
Procedure, shortened: as §3

lambsquarters [10] = assay: Test Example 4: herbicidal effect by soil treatment (Table 19, symbol O); assay type: in vivo, lambsquarters (Chenopodium album); settings: amount of applied herbicide 320 g/ha
Procedure, shortened: as §3

false cleavers = assay: Test Example 4: herbicidal effect by soil treatment (Table 19, symbol Q); assay type: in vivo, false cleavers (Galium spurium); settings: amount of applied herbicide 320 g/ha
Procedure, shortened: as §3

persian speedwell [11] = assay: Test Example 4: herbicidal effect by soil treatment (Table 19, symbol R); assay type: in vivo, Persian speedwell (Veronica persica); settings: amount of applied herbicide 320 g/ha
Procedure, shortened: as §3

southern crabgrass [12] = assay: Test Example 5: herbicidal effect by foliage application, plastic box (Table 20, symbol F); assay type: in vivo, southern crabgrass (Digitaria ciliaris); settings: evaluated three weeks after application
Procedure, shortened: (§4)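 Sow seeds spot-wise in sterilized diluvial soil; cover with ~1.5 cm soil. Grow 14 days in greenhouse, 25° C. to 30° C. Spray foliage with emulsion diluted to predetermined amount. Rate effect after 3 weeks.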

green foxtail [13] = assay: Test Example 5: herbicidal effect by foliage application, plastic box (Table 20, symbol G); assay type: in vivo, green foxtail (Setaria viridis); settings: evaluated three weeks after application
Procedure, shortened: as §4

barnyard grass [14] = assay: Test Example 5: herbicidal effect by foliage application, plastic box (Table 20, symbol H); assay type: in vivo, barnyard grass (Echinochloa crus-galli); settings: evaluated three weeks after application
Procedure, shortened: as §4

wild oat [15] = assay: Test Example 5: herbicidal effect by foliage application, plastic box (Table 20, symbol I); assay type: in vivo, wild oat (Avena fatua); settings: evaluated three weeks after application
Procedure, shortened: as §4

blackgrass [16] = assay: Test Example 5: herbicidal effect by foliage application, plastic box (Table 20, symbol J); assay type: in vivo, blackgrass (Alopecurus myosuroides); settings: evaluated three weeks after application
Procedure, shortened: as §4

Italian ryegrass [17] = assay: Test Example 5: herbicidal effect by foliage application, plastic box (Table 20, symbol K); assay type: in vivo, Italian ryegrass (Lolium multiflorum); settings: evaluated three weeks after application
Procedure, shortened: as §4

windgrass [18] = assay: Test Example 5: herbicidal effect by foliage application, plastic box (Table 20, symbol L); assay type: in vivo, windgrass (Apera spica-venti); settings: evaluated three weeks after application
Procedure, shortened: as §4

velvetleaf [19] = assay: Test Example 5: herbicidal effect by foliage application, plastic box (Table 20, symbol M); assay type: in vivo, velvetleaf (Abutilon theophrasti); settings: evaluated three weeks after application
Procedure, shortened: as §4

redroot pigweed [20] = assay: Test Example 5: herbicidal effect by foliage application, plastic box (Table 20, symbol N); assay type: in vivo, redroot pigweed (Amaranthus retroflexus); settings: evaluated three weeks after application
Procedure, shortened: as §4

lambsquarters [21] = assay: Test Example 5: herbicidal effect by foliage application, plastic box (Table 20, symbol O); assay type: in vivo, lambsquarters (Chenopodium album); settings: evaluated three weeks after application
Procedure, shortened: as §4

chickweed [22] = assay: Test Example 5: herbicidal effect by foliage application, plastic box (Table 20, symbol P); assay type: in vivo, common chickweed (Stellaria media); settings: evaluated three weeks after application
Procedure, shortened: as §4

persian speedwell [23] = assay: Test Example 5: herbicidal effect by foliage application, plastic box (Table 20, symbol R); assay type: in vivo, Persian speedwell (Veronica persica); settings: evaluated three weeks after application
Procedure, shortened: as §4

blackgrass [24] = assay: Test Example 4: herbicidal effect by soil treatment (Table 19, symbol J); assay type: in vivo, blackgrass (Alopecurus myosuroides); settings: amount of applied herbicide 320 g/ha
Procedure, shortened: as §3

chickweed [25] = assay: Test Example 4: herbicidal effect by soil treatment (Table 19, symbol P); assay type: in vivo, common chickweed (Stellaria media); settings: amount of applied herbicide 320 g/ha
Procedure, shortened: as §3

[26] = amount of applied herbicide 320 g/ha
[27] = foliage application, AAH 320 g/ha
[28] = amount of applied herbicide 320 g/ha, foliage application after 14-day growth

SMILES: Cc1nn(C)c(=O)c(-c2c(-c3ccc(SCC(F)F)cc3)sc3ccc(F)cc23)c1O [2-260]
- Herbicidal effect on A: late watergrass (grade 0-5) (late watergrass; 320 g/ha applied herbicide): 3 (Herbicidal rate of 40% or more and less than 70%)
- Herbicidal effect on B: Japanese bulrush (grade 0-5) (Japanese bulrush; 320 g/ha applied herbicide): 0 (Herbicidal rate of 5% or less (almost no effect))
- Herbicidal effect on C: oval-leafed pondweed (grade 0-5) (oval-leafed pondweed; 320 g/ha applied herbicide): 0 (Herbicidal rate of 5% or less (almost no effect))
- herbicidal effect on H: barnyard grass (barnyard grass [1]; [26]): 5 (Herbicidal rate of 90% or more (almost completely withered))
- herbicidal effect on D: Chinese sprangletop (Chinese sprangletop; [26]): 3 (Herbicidal rate of 40% or more and less than 70%)
- herbicidal effect on E: rice flat sedge (rice flat sedge; [26]): 3 (Herbicidal rate of 40% or more and less than 70%)
- herbicidal effect on F: southern crabgrass (southern crabgrass [2]): 4 (Herbicidal rate of 70% or more and less than 90%)
- herbicidal effect on G: green foxtail (green foxtail [3]): 5 (Herbicidal rate of 90% or more (almost completely withered))
- herbicidal effect on H: barnyard grass (barnyard grass [4]): 3 (Herbicidal rate of 40% or more and less than 70%)
- herbicidal effect on I: wild oat (wild oat [5]): 0 (Herbicidal rate of 5% or less (almost no effect))
- herbicidal effect on K: Italian ryegrass (Italian ryegrass [6]): 0 (Herbicidal rate of 5% or less (almost no effect))
- herbicidal effect on L: windgrass (windgrass [7]): 0 (Herbicidal rate of 5% or less (almost no effect))
- herbicidal effect on M: velvetleaf (velvetleaf [8]): 3 (Herbicidal rate of 40% or more and less than 70%)
- herbicidal effect on N: redroot pigweed (redroot pigweed [9]): 5 (Herbicidal rate of 90% or more (almost completely withered))
- herbicidal effect on O: lambsquarters (lambsquarters [10]): 5 (Herbicidal rate of 90% or more (almost completely withered))
- herbicidal effect on Q: false cleavers (false cleavers): 0 (Herbicidal rate of 5% or less (almost no effect))
- herbicidal effect on R: persian speedwell (persian speedwell [11]): 3 (Herbicidal rate of 40% or more and less than 70%)
- F: southern crabgrass, herbicidal effect (criteria 0-5) (southern crabgrass [12]; [27]): 5 (Herbicidal rate of 90% or more (almost completely withered))
- G: green foxtail, herbicidal effect (criteria 0-5) (green foxtail [13]; [27]): 5 (Herbicidal rate of 90% or more (almost completely withered))
- H: barnyard grass, herbicidal effect (criteria 0-5) (barnyard grass [14]; [27]): 5 (Herbicidal rate of 90% or more (almost completely withered))
- I: wild oat, herbicidal effect (criteria 0-5) (wild oat [15]; [27]): 5 (Herbicidal rate of 90% or more (almost completely withered))
- J: blackgrass, herbicidal effect (criteria 0-5) (blackgrass [16]; [27]): 4 (Herbicidal rate of 70% or more and less than 90%)
- K: Italian ryegrass, herbicidal effect (criteria 0-5) (Italian ryegrass [17]; [27]): 5 (Herbicidal rate of 90% or more (almost completely withered))
- L: windgrass, herbicidal effect (criteria 0-5) (windgrass [18]; [27]): 5 (Herbicidal rate of 90% or more (almost completely withered))
- M: velvetleaf, herbicidal effect (criteria 0-5) (velvetleaf [19]; [27]): 4 (Herbicidal rate of 70% or more and less than 90%)
- N: redroot pigweed, herbicidal effect (criteria 0-5) (redroot pigweed [20]; [27]): 5 (Herbicidal rate of 90% or more (almost completely withered))
- O: lambsquarters, herbicidal effect (criteria 0-5) (lambsquarters [21]; [27]): 5 (Herbicidal rate of 90% or more (almost completely withered))
- P: chickweed, herbicidal effect (criteria 0-5) (chickweed [22]; [27]): 5 (Herbicidal rate of 90% or more (almost completely withered))
- R: persian speedwell, herbicidal effect (criteria 0-5) (persian speedwell [23]; [27]): 5 (Herbicidal rate of 90% or more (almost completely withered))

SMILES: CCCC(=O)Oc1c(C)nn(C)c(=O)c1-c1c(-c2ccc(F)cc2OCC)sc2cc(F)c(F)cc12 [5-032]
- Herbicidal effect, A: late watergrass (late watergrass; [26]): 4 (Herbicidal rate of 70% or more and less than 90%)
- Herbicidal effect, B: Japanese bulrush (Japanese bulrush; [26]): 1 (Herbicidal rate of 5% or more and less than 20%)
- Herbicidal effect, C: oval-leafed pondweed (oval-leafed pondweed; [26]): 0 (Herbicidal rate of 5% or less (almost no effect))
- herbicidal effect on barnyard grass (H) (barnyard grass [1]; 320 g/ha): 4 (Herbicidal rate of 70% or more and less than 90%)
- herbicidal effect on Chinese sprangletop (D) (Chinese sprangletop; 320 g/ha): 3 (Herbicidal rate of 40% or more and less than 70%)
- herbicidal effect on rice flat sedge (E) (rice flat sedge; 320 g/ha): 0 (Herbicidal rate of 5% or less (almost no effect))
- F: southern crabgrass, herbicidal effect grade (southern crabgrass [2]): 0 (Herbicidal rate of 5% or less (almost no effect))
- G: green foxtail, herbicidal effect grade (green foxtail [3]): 3 (Herbicidal rate of 40% or more and less than 70%)
- H: barnyard grass, herbicidal effect grade (barnyard grass [4]): 0 (Herbicidal rate of 5% or less (almost no effect))
- I: wild oat, herbicidal effect grade (wild oat [5]): 0 (Herbicidal rate of 5% or less (almost no effect))
- J: blackgrass, herbicidal effect grade (blackgrass [24]): 3 (Herbicidal rate of 40% or more and less than 70%)
- K: Italian ryegrass, herbicidal effect grade (Italian ryegrass [6]): 0 (Herbicidal rate of 5% or less (almost no effect))
- L: windgrass, herbicidal effect grade (windgrass [7]): 5 (Herbicidal rate of 90% or more (almost completely withered))
- M: velvetleaf, herbicidal effect grade (velvetleaf [8]): 1 (Herbicidal rate of 5% or more and less than 20%)
- N: redroot pigweed, herbicidal effect grade (redroot pigweed [9]): 4 (Herbicidal rate of 70% or more and less than 90%)
- O: lambsquarters, herbicidal effect grade (lambsquarters [10]): 4 (Herbicidal rate of 70% or more and less than 90%)
- P: chickweed, herbicidal effect grade (chickweed [25]): 0 (Herbicidal rate of 5% or less (almost no effect))
- Q: false cleavers, herbicidal effect grade (false cleavers): 0 (Herbicidal rate of 5% or less (almost no effect))
- Herbicidal effect by foliage application, F: southern crabgrass (southern crabgrass [12]; [28]): 0 (Herbicidal rate of 5% or less (almost no effect))
- Herbicidal effect by foliage application, G: green foxtail (green foxtail [13]; [28]): 2 (Herbicidal rate of 20% or more and less than 40%)
- Herbicidal effect by foliage application, H: barnyard grass (barnyard grass [14]; [28]): 4 (Herbicidal rate of 70% or more and less than 90%)
- Herbicidal effect by foliage application, I: wild oat (wild oat [15]; [28]): 0 (Herbicidal rate of 5% or less (almost no effect))
- Herbicidal effect by foliage application, J: blackgrass (blackgrass [16]; [28]): 3 (Herbicidal rate of 40% or more and less than 70%)
- Herbicidal effect by foliage application, K: Italian ryegrass (Italian ryegrass [17]; [28]): 0 (Herbicidal rate of 5% or less (almost no effect))
- Herbicidal effect by foliage application, L: windgrass (windgrass [18]; [28]): 4 (Herbicidal rate of 70% or more and less than 90%)
- Herbicidal effect by foliage application, M: velvetleaf (velvetleaf [19]; [28]): 4 (Herbicidal rate of 70% or more and less than 90%)
- Herbicidal effect by foliage application, N: redroot pigweed (redroot pigweed [20]; [28]): 3 (Herbicidal rate of 40% or more and less than 70%)
- Herbicidal effect by foliage application, O: lambsquarters (lambsquarters [21]; [28]): 3 (Herbicidal rate of 40% or more and less than 70%)
- Herbicidal effect by foliage application, P: chickweed (chickweed [22]; [28]): 5 (Herbicidal rate of 90% or more (almost completely withered))
- Herbicidal effect by foliage application, R: persian speedwell (persian speedwell [23]; [28]): 3 (Herbicidal rate of 40% or more and less than 70%)
